Source: patent US20120184536A1, “COMPOSITIONS COMPRISING SPECIFIC UGT INHIBITORS AND METHODS OF USE THEREOF” (The Board of Trustees of the University of Arkansas, priority 2009, published 2012)
Read-outs that look alike come from different tables or passages of the source.

What was measured:
[1] = target: T1, UGT1A10 (Homo sapiens, UniProt Q9HAW8); assay: Ki assays / kinetics and inhibition type, UGT1A10 (Example 1); details: read-out: Km (Substrate), Km of the aglycone substrate
T1 sequence (Q9HAW8 26-530): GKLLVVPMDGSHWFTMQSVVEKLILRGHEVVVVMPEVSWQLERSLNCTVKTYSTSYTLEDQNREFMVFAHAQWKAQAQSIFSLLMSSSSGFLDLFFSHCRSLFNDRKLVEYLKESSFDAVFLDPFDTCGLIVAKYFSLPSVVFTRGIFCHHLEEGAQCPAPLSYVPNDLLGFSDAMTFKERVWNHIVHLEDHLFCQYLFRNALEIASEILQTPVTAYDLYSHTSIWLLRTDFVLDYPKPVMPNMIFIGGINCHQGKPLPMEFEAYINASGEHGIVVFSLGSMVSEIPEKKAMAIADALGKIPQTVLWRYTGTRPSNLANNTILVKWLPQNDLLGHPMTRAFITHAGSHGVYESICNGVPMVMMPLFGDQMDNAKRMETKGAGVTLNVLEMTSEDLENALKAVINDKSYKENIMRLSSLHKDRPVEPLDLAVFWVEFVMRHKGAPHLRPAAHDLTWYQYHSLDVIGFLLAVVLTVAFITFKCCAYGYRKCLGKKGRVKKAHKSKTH
Method: (§5) Recombinant UGT Isoform Incubations—Recombinant human UGT2B7 was produced in HEK239 cells as previously described (6). UGT1A10 was produced as a His-tagged protein in baculovirus-infected Sf9 insect cells as previously described (7, 8). […] For inhibition assays, recombinant UGT membrane protein was incubated in reaction buffer with substrate, inhibitor, and co-substrate as previously described (6, 9).
(§6) Ki assays—UGT2B7 or 1A10 were incubated with a range of at least four different concentrations of inhibitor using varying concentrations of substrate (Ki(substrate)) with a fixed saturating concentration of cosubstrate or with varying concentrations of co-substrate (Ki(UDP-GlcUA)) and a fixed saturating concentration of substrate (FIG. 4).
(§7) The results of these experiments were analyzed and apparent kinetic and inhibition parameters were determined using Prism 4 software (GraphPad, San Diego, Calif.) and DynaFit (BioKin, Watertown, Mass.). TLC and HPLC Analysis—For inhibition assays using all substrates other than 7-OH-warfarin, aliquots (60 μl) of each incubation were analyzed using thin layer chromatography (TLC) as previously described (3). For inhibition assays using 7-OH-warfarin as a substrate, samples were analyzed using HPLC as described previously (10). Primary standards for the 7-OH-warfarin glucuronide were not available; therefore, product concentrations were estimated using the external standard response for the 7-OH-warfarin substrate.

[2] = target: T1, UGT1A10; assay: Ki assays / kinetics and inhibition type, UGT1A10 (Example 2)
Method: Recombinant UGT Isoform Incubations—Recombinant human UGT1A10 and it mutants were produced in baculovirus-infected insect cells as previously described (6, 7). Synthesis of inhibitors was described previously (2). For inhibition assays, UGT recombinant membrane protein (5 μg) was incubated in reaction buffer ([…] Tris-HCl (pH 7.4)/5 mM MgCl2/5 mM saccharolactone) and 2% DMSO with substrate, inhibitor and co-substrate, UDP-GlcUA, in a total volume of 30 μl. Substrates were added in DMSO, and controls were run with each assay. No additional detergents or other activators were used in the incubations. Reactions were started by the addition of co-substrate and incubated at 37° C. (90 min for 8-hydroxywarfarin; 30 min for 4-MU; 30 min for E2). […] Reactions were stopped by addition of 40 μl of ethanol, and all incubations were performed in duplicate.
TLC Analysis—For inhibition assays using 4-MU, E2, and 8-OH warfarin as substrates, aliquots (60 μl) of each sample were analyzed using thin layer chromatography (TLC) as described previously (3).
Each sample was centrifuged at 14,000 rpm for 8 min to spin down the protein, and 60 μl of the supernatant was analyzed by HPLC as described previously (8).

[3] = target: T2, UGT1A6 (Homo sapiens, UniProt P19224); details: cited from earlier work; for inhibition type toward UDP-GlcUA / inhibition type with 4-MU: 4-MU glucuronidation
T2 sequence (P19224 27-532): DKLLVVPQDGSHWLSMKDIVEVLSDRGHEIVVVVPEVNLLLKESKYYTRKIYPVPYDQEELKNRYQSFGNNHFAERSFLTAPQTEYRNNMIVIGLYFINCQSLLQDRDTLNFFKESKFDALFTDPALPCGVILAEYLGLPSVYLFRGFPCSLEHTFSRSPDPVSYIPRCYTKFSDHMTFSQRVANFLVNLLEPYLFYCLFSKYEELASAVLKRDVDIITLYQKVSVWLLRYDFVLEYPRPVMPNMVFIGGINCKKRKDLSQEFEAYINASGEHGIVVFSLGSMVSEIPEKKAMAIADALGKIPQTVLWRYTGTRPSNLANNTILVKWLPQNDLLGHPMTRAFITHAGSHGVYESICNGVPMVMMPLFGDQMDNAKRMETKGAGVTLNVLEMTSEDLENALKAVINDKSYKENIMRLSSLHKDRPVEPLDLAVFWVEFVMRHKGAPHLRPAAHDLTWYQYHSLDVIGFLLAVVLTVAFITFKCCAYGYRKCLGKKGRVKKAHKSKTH

[4] = target: T3, UGT2B7 (Homo sapiens, UniProt P16662); assay: Ki assays / kinetics and inhibition type, UGT2B7 (Example 1); details: human
T3 sequence (P16662 24-529): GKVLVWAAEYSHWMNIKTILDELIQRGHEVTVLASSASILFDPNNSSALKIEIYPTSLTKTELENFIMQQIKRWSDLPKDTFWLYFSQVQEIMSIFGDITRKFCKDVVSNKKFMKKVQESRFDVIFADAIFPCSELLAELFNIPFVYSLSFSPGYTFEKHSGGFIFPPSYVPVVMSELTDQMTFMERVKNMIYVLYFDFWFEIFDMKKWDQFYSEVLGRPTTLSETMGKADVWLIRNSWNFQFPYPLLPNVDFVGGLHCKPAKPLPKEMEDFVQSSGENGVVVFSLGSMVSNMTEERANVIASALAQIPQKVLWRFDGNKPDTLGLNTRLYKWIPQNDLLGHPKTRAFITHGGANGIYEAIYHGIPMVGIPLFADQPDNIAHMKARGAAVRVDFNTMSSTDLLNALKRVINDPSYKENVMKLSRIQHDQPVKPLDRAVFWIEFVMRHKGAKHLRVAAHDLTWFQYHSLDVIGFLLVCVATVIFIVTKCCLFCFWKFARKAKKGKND
Method: as §5, §6, §7

[5] = target: T3, UGT2B7; assay: Screening assay, linoleic acid glucuronidation by UGT2B7; type: biochemical; parameters: made in house; host or cells: HEK239 cells (so in the source); details: 250 μM linoleic acid; 0, 50 or 200 μM inhibitor; FIG. 2
Method: (§1) FIG. 2 depicts the effect of PP inhibitors on the glucuronidation by UGT1A6, 1A8, 1A10, and 2B7. Each enzyme was incubated with 250 μM of 4-MU or linoleic acid and 0 μM (black), 50 μM (grey), or 200 μM (white) of each inhibitor. Activities are normalized to percent maximal activity.
(§2) Synthesis of inhibitors was described previously (2).

[6] = target: T2, UGT1A6; assay: Screening assay, 4-MU glucuronidation by UGT1A6; type: biochemical; details: 250 μM 4-MU; 0, 50 or 200 μM inhibitor; FIG. 2 / FIG. 10
Method: as §1
(§3) FIG. 10 depicts the effect of PP inhibitors on the glucuronidation of 4-MU by UGT1A6, 1A8, and 1A10. Each enzyme was incubated with 250 μM 4-MU and 0, 50, or 200 μM concentrations of each inhibitor. Activities are normalized to percent maximal activity.
as §2
(§4) Recombinant UGT Isoform Incubations—Recombinant human UGT1A10 and it mutants were produced in baculovirus-infected insect cells as previously described (6, 7). Synthesis of inhibitors was described previously (2). For inhibition assays, UGT recombinant membrane protein (5 μg) was incubated in reaction buffer ([…] Tris-HCl (pH 7.4)/5 mM MgCl2/5 mM saccharolactone) and 2% DMSO with substrate, inhibitor and co-substrate, UDP-GlcUA, in a total volume of 30 μl. Substrates were added in DMSO, and controls were run with each assay. No additional detergents or other activators were used in the incubations. Reactions were started by the addition of co-substrate and incubated at 37° C. (90 min for 8-hydroxywarfarin; 30 min for 4-MU; 30 min for E2). […]

[7] = target: T4, UGT1A8 (Homo sapiens, UniProt Q9HAW9); assay: Screening assay, 4-MU glucuronidation by UGT1A8; type: biochemical; details: 250 μM 4-MU; 0, 50 or 200 μM inhibitor; FIG. 2 / FIG. 10
T4 sequence (Q9HAW9 26-530): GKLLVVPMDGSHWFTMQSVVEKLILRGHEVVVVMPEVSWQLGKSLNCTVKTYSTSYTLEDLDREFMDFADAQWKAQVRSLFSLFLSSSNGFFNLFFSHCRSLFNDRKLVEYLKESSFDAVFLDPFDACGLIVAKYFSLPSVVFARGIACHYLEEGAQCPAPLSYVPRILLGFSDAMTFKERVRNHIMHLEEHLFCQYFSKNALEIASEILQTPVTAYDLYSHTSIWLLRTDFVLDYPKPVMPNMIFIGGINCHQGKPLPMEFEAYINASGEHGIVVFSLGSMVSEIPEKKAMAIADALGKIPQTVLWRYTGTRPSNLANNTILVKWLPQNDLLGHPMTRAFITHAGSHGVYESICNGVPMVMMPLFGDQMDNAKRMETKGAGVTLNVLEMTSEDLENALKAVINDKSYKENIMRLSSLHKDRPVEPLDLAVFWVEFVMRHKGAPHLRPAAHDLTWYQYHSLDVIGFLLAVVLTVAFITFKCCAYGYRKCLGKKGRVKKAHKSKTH
Method: as §1, §3, §2, §4

[8] = target: T1, UGT1A10; assay: Screening assay, 4-MU glucuronidation by UGT1A10; type: biochemical; parameters: His; made in house; host or cells: baculovirus-infected Sf9 insect cells; details: 250 μM 4-MU; 0, 50 or 200 μM inhibitor; FIG. 2 / FIG. 10
Method: as §1, §3, §2, §4

[9] = target: T3, UGT2B7; assay: IC50 assays, inhibition of UGT2B7 glucuronidation (Example 1); details: read-out: IC50 (Substrate), linoleic acid ~2 x Km, co-substrate in >5 fold excess
Method: (§8) Recombinant UGT Isoform Incubations—Recombinant human UGT2B7 was produced in HEK239 cells as previously described (6). […] For inhibition assays, recombinant UGT membrane protein was incubated in reaction buffer with substrate, inhibitor, and co-substrate as previously described (6, 9).
(§9) IC50 assays—UGT2B7 or 1A10 were incubated with fixed concentrations of each substrate and co-substrate and increasing concentrations of inhibitor.
as §7

[10] = target: T3, UGT2B7
Method: as §8, §9, §7

[11] = substrate: C[C@]12CC[C@@H](O)C[C@@H]1CC[C@@H]1[C@@H]2CC[C@]2(C)C(=O)CC[C@@H]12; assay: purified protein, by the assay type; details: other: UGT2B7; Km of the aglycone substrate
[12] = substrate: O=[N+]([O-])c1ccc(O)cc1; assay: purified protein, by the assay type; details: other: UGT2B7; Km of the aglycone substrate
Method: as §5, §6, §7

[13] = read-out: Km (Substrate), UGT1A10, Km of the aglycone substrate, Example 2

Molecule: CC(=O)CC(c1ccccc1)c1c(O)c2cccc(O)c2oc1=O (stereo not drawn) [8-OH Warfarin, 8-hydroxywarfarin, reference compound]
- Km [1]: 510 ± 70 µM
- Km [2, 13]: 515 ± 17 µM

Molecule: CCCCCCCCCC(=O)NC(COC(=O)NS(=O)(=O)OCC1OC(n2ccc(=O)[nH]c2=O)C2OC(C)(C)OC12)Cc1ccccc1 (stereo not drawn) [PP50B]
- inhibition type toward UDP-GlcUA [3]: competitive
- inhibition type with 4-MU [3]: non-competitive
- inhibition of 4-methylumbelliferone (4-MU) glucuronidation [3]: identified as inhibitors

Molecule: CCCCC/C=C\C/C=C\CCCCCCCC(=O)O [Linoleic Acid, reference compound]
- Km [4]: 160 ± 20 µM

Molecule: Cc1cc(=O)oc2cc(O)ccc12 [4-MU, 4-methylumbelliferone, reference compound]
- Km [1]: 200 ± 20 µM
- Km [2, 13]: 91.1 ± 19 µM

Molecule: CCCCCCCCCC(=O)NC(COC(=O)NS(=O)(=O)OCC1OC(n2ccc(=O)[nH]c2=O)C(O)C1O)C(O)c1ccccc1 (stereo not drawn) [PP37]
- inhibition type toward UDP-GlcUA [3]: competitive
- inhibition type with 4-MU [3]: competitive
- inhibition of 4-methylumbelliferone (4-MU) glucuronidation [3]: identified as inhibitors

Molecule: CC(=O)CC(c1ccccc1)c1c(O)c2ccc(O)cc2oc1=O (stereo not drawn) [7-OH Warfarin, 7-hydroxywarfarin, reference compound]
- Km [1]: 450 ± 40 µM
- Km [2, 13]: 497 ± 61 µM

Molecule: CCCCCCCCCC(=O)NC(COC(=O)NS(=O)(=O)OCC1OC(n2ccc(=O)[nH]c2=O)C2OC(C)(C)OC12)C(O)c1ccccc1 (stereo not drawn) [PP37P]
- effect on glucuronidation of linoleic acid by UGT2B7 [5]: least effect
- effect on glucuronidation of 4-MU by UGT1A6 [6]: least effect
- effect on glucuronidation of 4-MU by UGT1A8 [7]: least effect
- effect on glucuronidation of 4-MU by UGT1A10 [8]: least effect
- inhibition type toward UDP-GlcUA [3]: competitive
- inhibition type with 4-MU [3]: competitive
- inhibition of 4-methylumbelliferone (4-MU) glucuronidation [3]: identified as inhibitors

Molecule: CCCCCCCCCC(=O)NC(COC(=O)NCC(=O)NCC1OC(n2ccc(=O)[nH]c2=O)C(O)C1O)C(O)c1ccccc1 (stereo not drawn) [PP36]
- effect on glucuronidation of linoleic acid by UGT2B7 [5]: least effect
- effect on glucuronidation of 4-MU by UGT1A6 [6]: least effect
- IC50 [9]: 740 µM
- IC50 [10]: 210 µM
- effect on glucuronidation of 4-MU by UGT1A8 [7]: least effect
- effect on glucuronidation of 4-MU by UGT1A10 [8]: least effect

Molecule: CCCCCCCCCC(=O)NC(COC(=O)CS(=O)(=O)OCC1OC(n2ccc(=O)[nH]c2=O)C(O)C1O)Cc1ccccc1 (stereo not drawn) [PP56B]
- inhibition type toward UDP-GlcUA [3]: competitive
- inhibition type with 4-MU [3]: competitive
- inhibition of 4-methylumbelliferone (4-MU) glucuronidation [3]: identified as inhibitors

Molecule: C[C@]12CC[C@@H]3c4ccc(O)cc4CC[C@H]3[C@@H]1CC[C@@H]2O [E2, reference compound]
- Km [1]: 46 ± 5 µM
- Km [2]: 48.3 ± 9 µM

B1: UGT2B7 (Homo sapiens) (protein)
chain: GKVLVWAAEYSHWMNIKTILDELIQRGHEVTVLASSASILFDPNNSSALKIEIYPTSLTKTELENFIMQQIKRWSDLPKDTFWLYFSQVQEIMSIFGDITRKFCKDVVSNKKFMKKVQESRFDVIFADAIFPCSELLAELFNIPFVYSLSFSPGYTFEKHSGGFIFPPSYVPVVMSELTDQMTFMERVKNMIYVLYFDFWFEIFDMKKWDQFYSEVLGRPTTLSETMGKADVWLIRNSWNFQFPYPLLPNVDFVGGLHCKPAKPLPKEMEDFVQSSGENGVVVFSLGSMVSNMTEERANVIASALAQIPQKVLWRFDGNKPDTLGLNTRLYKWIPQNDLLGHPKTRAFITHGGANGIYEAIYHGIPMVGIPLFADQPDNIAHMKARGAAVRVDFNTMSSTDLLNALKRVINDPSYKENVMKLSRIQHDQPVKPLDRAVFWIEFVMRHKGAKHLRVAAHDLTWFQYHSLDVIGFLLVCVATVIFIVTKCCLFCFWKFARKAKKGKND
- Km [11]: 22 ± 2 µM
- Km [12]: 760 ± 130 µM
